Results published in ChEMBL document CHEMBL5143515, “Identification of new halogen-containing 2,4-diphenyl indenopyridin-5-one derivative as a boosting agent for the anticancer responses of clinically available topoisomerase inhibitors” (Eur J Med Chem, 2022).
Active and inactive are the calls of the source. The calls are words filed in the database; no cut-off is given here.

How the values were obtained:
[1] = Toxicity in mouse assessed as reduction in number of red blood cells at 4 mg/kg administered in combination with 2 mg/kg etoposide; type: organism-based; settings: in vivo
[2] = molecular target: T1, DNA topoisomerase 1 (Homo sapiens) (UniProt P11387); experiment: Inhibition of recombinant human topoisomerase 1 assessed as relaxation of supercoiled plasmid pBR322 DNA at 100 uM by agarose gel electrophoresis (reference value: 83.2%)
T1 sequence (whole entry): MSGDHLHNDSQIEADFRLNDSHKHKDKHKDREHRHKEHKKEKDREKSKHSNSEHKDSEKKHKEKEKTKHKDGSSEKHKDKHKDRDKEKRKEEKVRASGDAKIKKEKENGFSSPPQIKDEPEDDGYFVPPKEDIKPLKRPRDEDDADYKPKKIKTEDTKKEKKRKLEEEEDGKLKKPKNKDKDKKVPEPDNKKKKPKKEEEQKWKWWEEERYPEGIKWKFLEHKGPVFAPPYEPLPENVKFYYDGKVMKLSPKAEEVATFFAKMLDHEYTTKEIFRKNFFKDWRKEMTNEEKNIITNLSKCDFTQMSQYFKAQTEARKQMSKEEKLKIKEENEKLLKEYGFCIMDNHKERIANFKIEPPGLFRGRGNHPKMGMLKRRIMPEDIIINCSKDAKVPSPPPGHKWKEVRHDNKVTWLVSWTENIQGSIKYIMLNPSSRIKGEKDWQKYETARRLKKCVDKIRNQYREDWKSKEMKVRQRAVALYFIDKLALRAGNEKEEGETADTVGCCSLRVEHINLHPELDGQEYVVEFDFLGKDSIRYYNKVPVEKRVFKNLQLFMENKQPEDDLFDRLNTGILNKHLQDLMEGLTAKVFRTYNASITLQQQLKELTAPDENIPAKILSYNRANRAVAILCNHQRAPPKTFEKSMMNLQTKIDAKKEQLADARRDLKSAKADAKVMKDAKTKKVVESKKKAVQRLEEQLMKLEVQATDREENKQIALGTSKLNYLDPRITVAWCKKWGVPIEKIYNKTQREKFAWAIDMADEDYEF

[3] = system: HCT-15; experiment: Antitumor activity against human HCT-15 cells xenografted in female BALB/c nude mouse assessed as tumor growth retardation at 4 mg/kg, ip administered every day for 6 days in combination with etoposide at 2 mg/kg, ip administered every day for 6 days; type: functional, organism-based; settings: time 6.0 day
[4] = molecular target: DNA topoisomerase 2-alpha (Homo sapiens) (UniProt P11388); experiment: Inhibition of recombinant human topoisomerase 2alpha assessed as relaxation of supercoiled plasmid pBR322 DNA at 20 uM by agarose gel electrophoresis (reference value: 48.4%)
[5] = Genotoxicity in human HCT-15 cells assessed as production of Ub1-gamma-H2AX at 2 to 5 uM and measured in presence of 1 nM camptothecin by western blot analysis; type: toxicity, cell-based; settings: hct-15, 5 µM, dose 2-5 µM
[6] = molecular target: T1, DNA topoisomerase 1 (Homo sapiens); experiment: Catalytic inhibitor of non-intercalative topoisomerase 1 (unknown origin) assessed as binding to minor groove at 100 to 500 uM measured by cleavage complex assay; settings: dose 100-500 µM
[7] = Genotoxicity in human HCT-15 cells assessed as production of fragmented DNA tails at 2 to 5 uM and measured in presence of 0.2 uM etoposide by comet assay; type: toxicity, cell-based; settings: hct-15, 5 µM, dose 2-5 µM
[8] = Toxicity in mouse assessed as increase in mean corpuscular volume of RBC at 4 mg/kg administered in combination with 2 mg/kg etoposide; type: organism-based, Erythrocyte; settings: in vivo
[9] = system: HeLa; experiment: Antiproliferative activity against human HeLa cells after 72 hrs by EZ-Cytox colorimetric assay; type: functional, cell-based
[10] = Toxicity in mouse assessed as reduction in number of absolute neutrophil count at 4 mg/kg; type: organism-based; settings: in vivo
[11] = Genotoxicity in human HCT-15 cells assessed as production of gamma-H2AX at 2 to 5 uM and measured in presence of 1 nM camptothecin by western blot analysis; type: toxicity, cell-based; settings: hct-15, 5 µM, dose 2-5 µM
[12] = molecular target: T1, DNA topoisomerase 1 (Homo sapiens); experiment: Inhibition of recombinant human topoisomerase 1 assessed as relaxation of supercoiled plasmid pBR322 DNA at 20 uM by agarose gel electrophoresis (reference value: 40.4%)
[13] = system: HCT-15; experiment: Induction of apoptosis in human HCT-15 cells assessed as change in c-PARP level at 2 to 5 uM in presence of 1 nM camptothecin and measured by Western blot analysis; type: functional, cell-based; settings: dose 2-5 µM
[14] = Toxicity in mouse assessed as reduction in number of white blood cells at 4 mg/kg; type: organism-based; settings: in vivo
[15] = Genotoxicity in human HCT-15 cells assessed as production of fragmented DNA tails at 2 to 5 uM and measured in presence of 1 nM camptothecin by comet assay; type: toxicity, cell-based; settings: hct-15, 5 µM, dose 2-5 µM
[16] = system: T47D; experiment: Antiproliferative activity against human T47D cells after 72 hrs by EZ-Cytox colorimetric assay; type: functional, cell-based
[17] = Toxicity in mouse assessed as reduction in number of absolute neutrophil count at 4 mg/kg in presence of 2 mg/kg etoposide; type: organism-based; settings: in vivo
[18] = system: HCT-15; experiment: Synergistic antiproliferative activity against human HCT-15 cells at 5 uM in presence of 0.2 uM etoposide after 72 hrs by WST-1 assay; type: functional, cell-based
[19] = Toxicity in mouse assessed as increase in d red cell distribution width at 4 mg/kg administered in combination with 2 mg/kg etoposide; type: organism-based; settings: in vivo
[20] = Genotoxicity in human HCT-15 cells assessed as production of gamma-H2AX at 2 to 5 uM and measured by western blot analysis; type: toxicity, cell-based; settings: hct-15, 5 µM, dose 2-5 µM
[21] = molecular target: DNA topoisomerase 2-alpha (Homo sapiens) (UniProt P11388); experiment: Catalytic inhibitor of non-intercalative topoisomerase 2alpha (unknown origin) assessed as binding to minor groove at 250 to 500 uM measured by cleavage complex assay; settings: dose 250-500 µM
[22] = Toxicity in mouse assessed as reduction in number of white blood cells at 4 mg/kg in presence of 2 mg/kg etoposide; type: organism-based; settings: in vivo
[23] = Genotoxicity in human HCT-15 cells assessed as production of gamma-H2AX at 2 to 5 uM and measured in presence of 0.2 uM etoposide by western blot analysis; type: toxicity, cell-based; settings: hct-15, 5 µM, dose 2-5 µM
[24] = Toxicity in mouse assessed as reduction in hemoglobin level at 4 mg/kg; type: organism-based; settings: in vivo
[25] = Toxicity in mouse assessed as reduction in number of red blood cells at 4 mg/kg; type: organism-based; settings: in vivo
[26] = molecular target: DNA topoisomerase 2-alpha (Homo sapiens) (UniProt P11388); experiment: Inhibition of recombinant human topoisomerase 2alpha assessed as relaxation of supercoiled plasmid pBR322 DNA at 100 uM by agarose gel electrophoresis (reference value: 82.2%)
[27] = Cytotoxicity against mouse M2-10B4 cells after 72 hrs by EZ-Cytox colorimetric assay; type: toxicity, cell-based
[28] = system: Calf thymus DNA; experiment: Binding affinity to calf thymus DNA assessed as DNA intercalation at 5 to 40 uM by fluorescence based EtBr-displacement assay; type: nucleic-acid assay; settings: Bos taurus; dose 5-40 µM
[29] = Cytotoxicity against human MRC5 cells after 72 hrs by EZ-Cytox colorimetric assay; type: toxicity, cell-based
[30] = system: HCT-15; experiment: Induction of apoptosis in human HCT-15 cells assessed as change in c-caspase 7 level at 2 to 5 uM in presence of 0.2 uM etoposide and measured by Western blot analysis; type: functional, cell-based; settings: dose 2-5 µM
[31] = system: Calf thymus DNA; experiment: Binding affinity to calf thymus DNA assessed as DNA intercalation by measuring Stem-Volmer quenching constant at 0.01 to 0.1 uM by Hoechst displacement assay; type: nucleic-acid assay; settings: Bos taurus; dose 0.01-0.1 µM

Chain of DNA topoisomerase 2-alpha (Homo sapiens) (P11388 whole entry): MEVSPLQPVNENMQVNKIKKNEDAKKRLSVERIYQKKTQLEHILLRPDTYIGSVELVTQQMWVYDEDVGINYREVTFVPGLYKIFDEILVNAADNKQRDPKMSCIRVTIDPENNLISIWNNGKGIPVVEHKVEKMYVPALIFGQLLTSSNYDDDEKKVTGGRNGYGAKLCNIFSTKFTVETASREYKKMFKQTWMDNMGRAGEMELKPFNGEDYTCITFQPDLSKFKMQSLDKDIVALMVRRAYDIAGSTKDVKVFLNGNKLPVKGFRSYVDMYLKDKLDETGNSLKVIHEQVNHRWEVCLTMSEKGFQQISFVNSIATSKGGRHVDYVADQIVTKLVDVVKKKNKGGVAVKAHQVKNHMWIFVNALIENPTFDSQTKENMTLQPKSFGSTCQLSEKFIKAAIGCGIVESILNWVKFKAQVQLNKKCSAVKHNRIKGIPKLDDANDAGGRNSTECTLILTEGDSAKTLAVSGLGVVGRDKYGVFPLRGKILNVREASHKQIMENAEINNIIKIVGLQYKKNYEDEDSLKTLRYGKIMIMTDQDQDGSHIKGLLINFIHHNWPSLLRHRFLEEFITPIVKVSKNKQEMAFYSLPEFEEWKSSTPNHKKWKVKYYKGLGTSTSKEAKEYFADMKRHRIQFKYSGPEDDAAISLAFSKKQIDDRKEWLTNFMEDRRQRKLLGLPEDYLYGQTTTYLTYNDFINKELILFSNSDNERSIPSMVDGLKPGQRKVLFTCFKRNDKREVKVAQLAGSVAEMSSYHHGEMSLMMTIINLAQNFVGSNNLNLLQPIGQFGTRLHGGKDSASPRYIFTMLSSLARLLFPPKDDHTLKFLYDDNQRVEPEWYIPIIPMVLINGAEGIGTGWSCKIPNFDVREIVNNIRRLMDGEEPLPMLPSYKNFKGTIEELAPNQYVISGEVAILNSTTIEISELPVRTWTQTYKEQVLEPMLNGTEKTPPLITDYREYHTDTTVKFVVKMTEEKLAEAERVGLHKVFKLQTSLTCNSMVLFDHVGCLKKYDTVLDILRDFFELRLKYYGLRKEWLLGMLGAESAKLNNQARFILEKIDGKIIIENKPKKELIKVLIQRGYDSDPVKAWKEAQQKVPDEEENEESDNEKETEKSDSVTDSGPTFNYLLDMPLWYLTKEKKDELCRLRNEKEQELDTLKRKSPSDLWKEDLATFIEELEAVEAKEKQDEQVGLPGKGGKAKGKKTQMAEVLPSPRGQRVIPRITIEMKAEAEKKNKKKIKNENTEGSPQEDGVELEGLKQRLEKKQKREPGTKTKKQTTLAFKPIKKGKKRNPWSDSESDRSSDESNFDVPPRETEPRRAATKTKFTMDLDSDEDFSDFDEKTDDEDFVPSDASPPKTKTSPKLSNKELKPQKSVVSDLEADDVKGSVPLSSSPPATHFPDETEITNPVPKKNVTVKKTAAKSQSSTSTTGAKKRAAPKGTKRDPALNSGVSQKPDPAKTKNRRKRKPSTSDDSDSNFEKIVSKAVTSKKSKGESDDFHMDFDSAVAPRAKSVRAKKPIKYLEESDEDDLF

inhibition [2]: 87% | inhibition [4]: 6.6% | inhibition [6]: Active | inhibition [12]: 1.8% | inhibition [21]: Active | inhibition [26]: 85.8% | Activity [28]: Active | KSV [31]: 2.09 10^6/M
SMILES: O=C1c2ccccc2-c2nc(-c3ccc(Br)cc3)cc(-c3ccccc3)c21
Activity [1]: Non-Toxic | Activity [3]: Active | Activity [5]: Non-Toxic | Activity [7]: Non-Toxic | Activity [8]: Non-Toxic | IC50 [9]: > 50 µM | Activity [10]: Non-Toxic | Activity [11]: Non-Toxic | Activity [13]: Active | Activity [14]: Non-Toxic | Activity [15]: Non-Toxic | IC50 [16]: 32.7 µM | Activity [17]: Non-Toxic | Activity [18]: Active | Activity [19]: Non-Toxic | Activity [20]: Non-Toxic | Activity [22]: Non-Toxic | Activity [23]: Non-Toxic | Activity [24]: Non-Toxic | Activity [25]: Non-Toxic | IC50 at 72 h [27]: > 10 µM | IC50 at 72 h [29]: > 10 µM | Activity [30]: Active
